Activity calls are given as the source filed them. How the calls were made is not given here.
Test system: CCRIS mutagenicity, Ames/micronucleus/aberration tests
Test: CCRIS mutagenicity studies
[1] = Test System: AMES SALMONELLA TYPHIMURIUM, Strain/Indicator: TA98, Metabolic Activation: NONE, Method: PREINCUBATION
[2] = Test System: AMES SALMONELLA TYPHIMURIUM, Strain/Indicator: TA100, Metabolic Activation: NONE, Method: PREINCUBATION
[3] = Test System: AMES SALMONELLA TYPHIMURIUM, Strain/Indicator: TA102, Metabolic Activation: NONE, Method: PREINCUBATION

Measured: mutagenic call

Cc1cc(O)c2c(c1)C(=O)c1cccc(O)c1C2=O
active: [3] active; positive | Test System: AMES SALMONELLA TYPHIMURIUM, Strain/Indicator: TA102, Metabolic Activation: RAT, LIVER, S-9, Method: PREINCUBATION active; positive | Test System: AMES SALMONELLA TYPHIMURIUM, Strain/Indicator: TA1537, Metabolic Activation: RAT, LIVER, S-9, AROCLOR 1254, Method: STANDARD PLATE active; positive | Test System: AMES SALMONELLA TYPHIMURIUM, Strain/Indicator: TA1537, Metabolic Activation: RAT, LIVER, S-9, Method: PREINCUBATION active; positive
inactive: End Point: IN VITRO CHROMOSOMAL ABERRATIONS, Test System: CHO CELLS, Metabolic Activation: MALE WISTAR RAT, LIVER, S-9 inactive; negative; tested to limit of solubility | End Point: IN VITRO CHROMOSOMAL ABERRATIONS, Test System: CHO CELLS, Metabolic Activation: NONE inactive; negative; tested to limit of solubility | [1] inactive; negative | Test System: AMES SALMONELLA TYPHIMURIUM, Strain/Indicator: TA98, Metabolic Activation: NONE, Method: STANDARD PLATE inactive; negative | Test System: AMES SALMONELLA TYPHIMURIUM, Strain/Indicator: TA98, Metabolic Activation: RAT, LIVER, S-9, AROCLOR 1254, Method: STANDARD PLATE inactive; negative | Test System: AMES SALMONELLA TYPHIMURIUM, Strain/Indicator: TA98, Metabolic Activation: RAT, LIVER, S-9, PCB, Method: PREINCUBATION inactive; negative | [2] inactive; negative | Test System: AMES SALMONELLA TYPHIMURIUM, Strain/Indicator: TA100, Metabolic Activation: NONE, Method: STANDARD PLATE inactive; negative | Test System: AMES SALMONELLA TYPHIMURIUM, Strain/Indicator: TA100, Metabolic Activation: RAT, LIVER, S-9, AROCLOR 1254, Method: STANDARD PLATE inactive; negative | Test System: AMES SALMONELLA TYPHIMURIUM, Strain/Indicator: TA100, Metabolic Activation: RAT, LIVER, S-9, PCB, Method: PREINCUBATION inactive; negative | Test System: AMES SALMONELLA TYPHIMURIUM, Strain/Indicator: TA1535, Metabolic Activation: NONE, Method: STANDARD PLATE inactive; negative | Test System: AMES SALMONELLA TYPHIMURIUM, Strain/Indicator: TA1535, Metabolic Activation: RAT, LIVER, S-9, AROCLOR 1254, Method: STANDARD PLATE inactive; negative | Test System: AMES SALMONELLA TYPHIMURIUM, Strain/Indicator: TA1538, Metabolic Activation: NONE, Method: STANDARD PLATE inactive; negative | Test System: AMES SALMONELLA TYPHIMURIUM, Strain/Indicator: TA1538, Metabolic Activation: RAT, LIVER, S-9, AROCLOR 1254, Method: STANDARD PLATE inactive; negative

C=C(C)CCl
inactive: Test System: AMES SALMONELLA TYPHIMURIUM, Strain/Indicator: TA97, Metabolic Activation: HAMSTER, LIVER, S-9, AROCLOR 1254 (10 OR 30%), Method: PREINCUBATION inactive; negative | Test System: AMES SALMONELLA TYPHIMURIUM, Strain/Indicator: TA97, Metabolic Activation: NONE, Method: PREINCUBATION inactive; negative | Test System: AMES SALMONELLA TYPHIMURIUM, Strain/Indicator: TA97, Metabolic Activation: RAT, LIVER, S-9, AROCLOR 1254 (10 OR 30%), Method: PREINCUBATION inactive; negative | Test System: AMES SALMONELLA TYPHIMURIUM, Strain/Indicator: TA98, Metabolic Activation: HAMSTER, LIVER, S-9, AROCLOR 1254 (10 OR 30%), Method: PREINCUBATION inactive; negative | [1] inactive; negative | Test System: AMES SALMONELLA TYPHIMURIUM, Strain/Indicator: TA98, Metabolic Activation: RAT LIVER S-9, PHENOBARBITAL AND BETA-NAPHTHOFLAVONE, Method: PREINCUBATION inactive; negative | Test System: AMES SALMONELLA TYPHIMURIUM, Strain/Indicator: TA98, Metabolic Activation: RAT, LIVER, S-9, AROCLOR 1254 (10 OR 30%), Method: PREINCUBATION inactive; negative | Test System: AMES SALMONELLA TYPHIMURIUM, Strain/Indicator: TA100, Metabolic Activation: HAMSTER, LIVER, S-9, AROCLOR 1254 (10 OR 30%), Method: PREINCUBATION inactive; negative | [2] inactive; negative | Test System: AMES SALMONELLA TYPHIMURIUM, Strain/Indicator: TA100, Metabolic Activation: RAT LIVER S-9, PHENOBARBITAL AND BETA-NAPHTHOFLAVONE, Method: PREINCUBATION inactive; negative | Test System: AMES SALMONELLA TYPHIMURIUM, Strain/Indicator: TA100, Metabolic Activation: RAT, LIVER, S-9, AROCLOR 1254 (10 OR 30%), Method: PREINCUBATION inactive; negative | [3] inactive; negative | Test System: AMES SALMONELLA TYPHIMURIUM, Strain/Indicator: TA102, Metabolic Activation: RAT LIVER S-9, PHENOBARBITAL AND BETA-NAPHTHOFLAVONE, Method: PREINCUBATION inactive; negative | Test System: AMES SALMONELLA TYPHIMURIUM, Strain/Indicator: TA102, Metabolic Activation: RAT, LIVER, S-9, PHENOBARBITAL AND 5,6-BENZOFLAVONE, Method: STANDARD PLATE inactive; negative | Test System: AMES SALMONELLA TYPHIMURIUM, Strain/Indicator: TA104, Metabolic Activation: NONE, Method: PREINCUBATION inactive; negative | Test System: AMES SALMONELLA TYPHIMURIUM, Strain/Indicator: TA104, Metabolic Activation: RAT LIVER S-9, PHENOBARBITAL AND BETA-NAPHTHOFLAVONE, Method: PREINCUBATION inactive; negative | Test System: AMES SALMONELLA TYPHIMURIUM, Strain/Indicator: TA1535, Metabolic Activation: HAMSTER, LIVER, S-9, AROCLOR 1254 (10 OR 30%), Method: PREINCUBATION inactive; negative | Test System: AMES SALMONELLA TYPHIMURIUM, Strain/Indicator: TA1535, Metabolic Activation: NONE, Method: PREINCUBATION inactive; negative | Test System: AMES SALMONELLA TYPHIMURIUM, Strain/Indicator: TA1535, Metabolic Activation: RAT LIVER S-9, PHENOBARBITAL AND BETA-NAPHTHOFLAVONE, Method: PREINCUBATION inactive; negative | Test System: AMES SALMONELLA TYPHIMURIUM, Strain/Indicator: TA1535, Metabolic Activation: RAT, LIVER, S-9, AROCLOR 1254 (10 OR 30%), Method: PREINCUBATION inactive; negative | Test System: AMES SALMONELLA TYPHIMURIUM, Strain/Indicator: TA1537, Metabolic Activation: HAMSTER, LIVER, S-9, AROCLOR 1254 (10 OR 30%), Method: PREINCUBATION inactive; negative | Test System: AMES SALMONELLA TYPHIMURIUM, Strain/Indicator: TA1537, Metabolic Activation: NONE, Method: PREINCUBATION inactive; negative | Test System: AMES SALMONELLA TYPHIMURIUM, Strain/Indicator: TA1537, Metabolic Activation: RAT LIVER S-9, PHENOBARBITAL AND BETA-NAPHTHOFLAVONE, Method: PREINCUBATION inactive; negative | Test System: AMES SALMONELLA TYPHIMURIUM, Strain/Indicator: TA1537, Metabolic Activation: RAT, LIVER, S-9, AROCLOR 1254 (10 OR 30%), Method: PREINCUBATION inactive; negative | Test System: AMES SALMONELLA TYPHIMURIUM, Strain/Indicator: TA2638, Metabolic Activation: RAT, LIVER, S-9, PHENOBARBITAL AND 5,6-BENZOFLAVONE, Method: STANDARD PLATE inactive; negative | Test System: E. COLI, Strain/Indicator: WP2 (PKM101), Metabolic Activation: RAT, LIVER, S-9, PHENOBARBITAL AND 5,6-BENZOFLAVONE, Method: STANDARD PLATE inactive; negative | Test System: E. COLI, Strain/Indicator: WP2 UVRA (PKM101), Metabolic Activation: RAT, LIVER, S-9, PHENOBARBITAL AND 5,6-BENZOFLAVONE, Method: STANDARD PLATE inactive; negative | Test System: E.COLI, Strain/Indicator: WP2UVRA/PKM101, Metabolic Activation: NONE, Method: PREINCUBATION inactive; negative | Test System: E.COLI, Strain/Indicator: WP2UVRA, Metabolic Activation: NONE, Method: PREINCUBATION inactive; negative | Test System: E.COLI, Strain/Indicator: WP2UVRA, Metabolic Activation: RAT LIVER S-9, PHENOBARBITAL AND BETA-NAPHTHOFLAVONE, Method: PREINCUBATION inactive; negative
active: End Point: IN VITRO CHROMOSOMAL ABERRATIONS, Test System: CHL CELLS, Metabolic Activation: RAT, LIVER, S-9, SODIUM PHENOBARBITAL AND 5,6-BENZOFLAVONE active; positive (structural changes) | Test System: AMES SALMONELLA TYPHIMURIUM, Strain/Indicator: TA100, Metabolic Activation: NONE, Method: LIQUID SUSPENSION active; positive | Test System: AMES SALMONELLA TYPHIMURIUM, Strain/Indicator: TA100, Metabolic Activation: RAT, LIVER, S-9, Method: LIQUID SUSPENSION active; positive | Test System: E.COLI, Strain/Indicator: WP2UVRA/PKM101, Metabolic Activation: RAT LIVER S-9, PHENOBARBITAL AND BETA-NAPHTHOFLAVONE, Method: PREINCUBATION active; positive

— PubChem BioAssay AID1259407 (Chemical Carcinogenesis Research Information System (CCRIS), 2018)
